Here are results for 1 substance from patent US20230211030A1, “SYSTEMS AND METHODS FOR DISINFECTING PLUMBING FIXTURES AND ROOMS WITH PLUMBING FIXTURES” (priority 2021, published 2023).

Where two headings read alike, the source gives them in different places.

The test system of this assay is living organisms. The following applies: for ATP results, Under Rim, front: Before 74; for ATP results, Bowl Surface, left: Before 81; for ATP results, Bowl Surface, front: Before 91; for ATP results, Handle: Before 225; for ATP results, Tub Floor, right of drain: Before 6204. From the text: First, a control module or control system was constructed using a Raspberry Pi computer with 7 inch touchscreen monitor, Arduino microcontroller, two electronic breadboards, power supplies, and other electrical interfaces. A computer program written in Python receives inputs from the user via a convenient, single-screen input graphic on the touch screen. The graphic allows the user to independently specify the times that disinfecting fluid is dispensed to the sink, toilet, and shower by pressing up and down keys to increase or decrease minutes and seconds for each time. The time between disinfection cycles or cycle time is also input in the same manner. The graphic allows the chemical pump, 3-MD SC made by Little Giant Pump Co., to be enabled or disabled with the touch of a button. A button to start and stop the disinfecting cycle and also an output telling the user what part of the cycle is being run and how much time is left with that part of the cycle is also provided on the graphic interface screen. […] All chemical lines were made from half inch ID PVC reinforced tubing. Half inch stainless steel ball valves manufactured by U.S. Solid were installed in each branch to each plumbing fixture to control the on/off flow to each plumbing fixture, with the valve electronic actuators being wired to the control module and controlled by the program. The distribution structure conduit or tubing at the plumbing fixtures was customized to the shape and location of each plumbing fixture and was attached to each plumbing fixture in the following manner. […] A plexiglass backsplash was constructed about ten inches in height and 14 inches in width, plus partitions on either side protruding forward from the back panel at 45 degrees to help guide disinfecting fluid into the sink basin. The backsplash was held down to the countertop by a bead of silicone caulk, and the upper branch of tubing was mounted on this backsplash above the faucet. […] Holes were drilled in the tubing into which Quarter Circle Fan Micro Spray nozzles made by Mister Landscaper and available at Lowes were inserted and directed to either spray downward to coat the sink walls directly under the nozzles with disinfecting fluid or outward to spray disinfecting fluid into the sink basin on the opposite side of the sink. […] In this tubing, eleven Half Circle Fan Micro Spray nozzles were inserted with ten directed outwards toward the inner surfaces of the toilet bowl and one directed downwards so as to spray fluid onto a relatively large surface of the toilet bowl in the front of the toilet that sloped more gently and was not easily contacted by spray directed towards the sides. […] The program was configured to first apply disinfecting fluid to the sink for the time inputted for the sink, then the toilet, then the shower. When the cycle begins, the program first opens the ball valve to allow fluid to flow to a particular plumbing fixture, and then the pump is turned on and remains on until the end of the dispensing time, at which point the pump is turned off and the valve is closed. This sequence then repeats sequentially until all three plumbing fixtures have received the prescribed time of disinfecting fluid application.

[1] abbreviates: Inside Toilet Bowl, After 3.5 Days, 40 secs each hour.
The mark [2] stands for this setting: Inside Toilet Bowl, After 6.5 days (40 secs each hour for 3.5 days then 30s each hour for another 3 days).

With hydrogen peroxide [1% H2O2], the “ATP results, Bowl Surface, rear” value (Inside Toilet Bowl, After 3.5 Days, 40 secs each hour, Before 17) was found to be 3 RLU. Also, the “ATP results, Under Rim, right” value (Inside Toilet Bowl, After 3.5 Days, 40 secs each hour, Before 26) is listed as 3 RLU. The “ATP results, Under Rim, front” value runs as follows: under setting [1], 15 RLU; under setting [2], 2 RLU. Besides, the “ATP results, Bowl Surface, left” value runs as follows: under setting [1], 5 RLU; under setting [2], 3 RLU. Further, the “ATP results, Bowl Surface, front” value under setting [1] came out at 21 RLU and the “ATP results, Bowl Surface, front” value under setting [2] is 5 RLU. Where the note is “Inside Toilet Bowl, After 3.5 Days, 40 secs each hour, Before 173”, the “ATP results, Bowl Surface (above water), right” value was 7 RLU. Further, where the note is “Inside Toilet Bowl, After 3.5 Days, 40 secs each hour, Before 258”, the “ATP results, Under Rim, left” value is on record as 1 RLU. Under “Inside Toilet Bowl, After 3.5 Days, 40 secs each hour, Before 3083”, the “ATP results, Under Rim, rear” value stood at 2 RLU. For the same substance, the “ATP results, Handle” value is, setting by setting: (Shower/Tub, After 3.5 Days, 40 secs each hour, disinfectant missed handle until adjustments were made) 5381^2 RLU; (Shower/Tub, After 6.5 days (40 secs each hour for 3.5 days then 30s each hour for another 3 days), after spray adjusted to hit handle) 16 RLU. Also, under “Shower/Tub, After 3.5 Days, 40 secs each hour, Before 1789, remained high due to soap scum not being removed”, the “ATP results, Tub Floor Center” value is recorded as 557^3 RLU. For the same substance, the “ATP results, Tub Floor, left of drain” value (Shower/Tub, After 3.5 Days, 40 secs each hour, Before 4511) came to 38 RLU. Besides, the “ATP results, Tub Floor, right of drain” value runs as follows: (Shower/Tub, After 3.5 Days, 40 secs each hour) 8 RLU; (Shower/Tub, After 6.5 days (40 secs each hour for 3.5 days then 30s each hour for another 3 days)) 22 RLU. Further, the “ATP results, Inside Drain” value (Shower/Tub, After 3.5 Days, 40 secs each hour, Before 6559) came out at 6 RLU. Also, the “ATP results, Top of Drain Plug and Drain Collar” value was found to be 38 RLU (Shower/Tub, After 3.5 Days, 40 secs each hour, Before 6941) and 46 RLU (Sink, After 3.5 Days, 40 secs each hour, Before 4351). In addition, for the setting “Sink, After 3.5 Days, 40 secs each hour, Before 770”, the “ATP results, Sink Basin, Right of Drain” value stood at 13 RLU. The “ATP results, Sink Counter, left of faucet” value (Sink, After 3.5 Days, 40 secs each hour, Before 1876) turned out to be 6 RLU. The “ATP results, Inside Drain Collar Wall” value (Sink, After 3.5 Days, 40 secs each hour, Before 1951) amounted to 10 RLU. For the same substance, the “ATP results, Drain Plug, Down Inside Drain (avg)” value (Sink, After 3.5 Days, 40 secs each hour, Before 6863) was found to be 95 RLU.
